Experimental data published in patent US20150051246A1 (priority 2013, published 2015).

How the values were obtained:
[1] = tested on: xylazine/ketamine induced α2-adrenergic receptor-mediated anesthesia; conditions: in vivo, 3 mg/kg
Excerpt: Since emesis is a typical side-effect of PDE4 inhibitors the emetic potential of roflumilast and rolipram was investigated in parallel using the xylazine/ketamine induced α2-adrenergic receptor-mediated anesthesia test. The results confirmed that the two phosphodiesterase 4 inhibitors have different effects on emesis.

[2] = tested on: 60 to 80 years old subjects (Impaired Elderly and Healthy Elderly); experiment: Verbal Learning Task (VLT) in 60 to 80 years old subjects, interim analysis; type: in vivo, human
Protocol: The study is conducted according to a double-blind, placebo-controlled, four-period cross-over design. Forty healthy subjects, both male and female within an age range of 60 to 80 years are planned to be included in the study in two groups: 1) 20 subjects with a memory performance between 1-2 Standard Deviation below the average for their age, gender, and educated level (Impaired Elderly) and 2) 20 subjects with age (±3 years), gender, and educational level matched (in order to speed up the study matching was stopped after the interim analysis) with an average memory performance between 0.5 Standard Deviation below and 0.5 Standard Deviation above from normative values (Healthy Elderly). Classification in terms of impaired or healthy elderly will be determined by a one-off testing of memory performance using the Rey Verbal Learning Task (Rey A; L'examen psychologique dans les cas d'encephalopathy traumatique 1958 Paris; Presses Universitaire de France; or Van der Elst et al; J Int Neuropsychol Soc 2005, 11 (3), pp 290-302) according to fully standardized procedures as applied in The Maastricht Aging Study (Jolles et al; Maastricht Aging Study; determinants of cognitive aging; Maastricht, The Netherlands, Neuropsych Publishers 1995). Normative data for each individual subject will be derived also from the Maastricht Aging Study using the regression formula as described by Van der Elst et al (Van der Elst et al; J Int Neuropsychol Soc 2005, 11 (3), pp 290-302).
All subjects within their corresponding groups (either Healthy Elderly n=20 or Impaired Elderly n=20) will be randomized in a double blind fashion to 1 of 4 treatment sequences, each sequence consisting of the following periods: A) Placebo+placebo; B) Roflumilast 100 mcg+placebo; C) Roflumilast […]+placebo and D) Roflumilast 1000 mcg (500+500 mcg) according to a computer-generated allocation schedule in a cross-over design. Between each of the four treatment sequences there will be a 12 days washout period.
Verbal learning task (VLT) The Rey VLT as modified by Riedel and colleagues (Riedel, Klaasen et al, Psychopharmacology (Berlin) 1999 Vol 141(4) pp 362-369) is used. This modified VLT maximizes the possibility of measuring enhancement rather than only impairment, by means of prolonging the list. The test consists of a list of 30 monosyllabic words (18 nouns and 12 adjectives). The words are shown on a computer screen for 1 second. Three trials with the same item sequence are presented. Each trial ends with a free recall of the words (immediate recall). Forty-five minutes after the first exposure, the subject is asked to recall as many words as possible (delayed recall). […] The words are shown on a computer screen for 2 seconds and subjects are asked to rate whether they were presented in the learning trial by a “yes/no” response. The inter-word interval is 2 seconds. 24 Hours after the immediate recall, subjects will return to the lab for a second delayed recall and recognition. […] EEG will be recorded during the immediate recall and the first recognition test on the test day. […]
An interim analysis has been performed based on the data of 9 subjects of the Impaired Elderly group and 4 subjects of the Healthy Elderly group. For this purpose, cognitive battery test scores (VLT, SMT, Stroop task and BL-VAS) and concentrations of roflumilast and roflumilast-N-oxide in plasma have been analysed and summarized by dose over each scheduled sampling time using descriptive statistics. […]

Compound: O=C(Nc1c(Cl)cncc1Cl)c1ccc(OC(F)F)c(OCC2CC2)c1 [roflumilast, N-(3,5-dichloropyridin-4-yl)-3-cyclopropylmethoxy-4-difluoromethoxybenzamide]
- emetic potential [1]: tendency towards emetic potential
- increase in number of correct words, 45 min delayed recall, compared to placebo ([2]; 100 mcg): 1.7 words
- placebo-corrected fold-improvement ([2]; 100 mcg, 3rd trial, interim data elderly study): 1.16
- increase in number of correct words immediately recalled, compared to placebo ([2]; 100 mcg, after 3rd trial): 1.5 words
- number of words on the 3rd trial ([2]; 100 mcg, elderly subjects): 10.28 words
- increase in number of correct words, 45 min delayed recall, compared to placebo ([2]; 1000 mcg): 1.6 words
